Results on 8 compounds are retold here after patent US20250114369A1, “COMPOUNDS AND METHODS FOR TREATMENT OF VIRAL INFECTIONS” (Gilead Sciences, Inc., priority 2023, published 2025).

Each structure is given as a SMILES string.

The subject of data set [1] is Respiratory syncytial virus recombinant with luciferase (RSV-Luc5). In words: microbe, parasite or virus in culture. It is filed as cell-based. Conditions: human respiratory syncytial virus, NHBE, 72 h, read-out: RSV NHBE EC50 (nM).
Data set [2] relates to SARS Coronavirus 2 recombinant with NanoLuc (SARS-CoV2-NLuc). In words: organism not typed. It is filed as cell-based. Conditions: 48 h.
A short description of data set [3]: in vitro. It is filed as cell-based. Conditions: human. How it is done: Cytotoxicity of the compounds was determined in uninfected cells using the cell viability reagent in a similar fashion as described before for other cell types (Cihlar et al., Antimicrob Agents Chemother. 2008, 52(2):655-65). HEp-2 (1.5×10^3 cells/well) and MT-4 (2×10^3 cells/well) cells were plated in 384-well plates and incubated with the appropriate medium containing 3-fold serially diluted compound ranging from 15 nM to 100,000 nM. Cells were cultured for 4-5 days at 37° C. Following the incubation, the cells were allowed to equilibrate to 25° C., and cell viability was determined by adding Cell-Titer Glo viability reagent. The mixture was incubated for 10 min, and the luminescence signal was quantified using an Envision plate reader. Untreated cell and cells treated at 2 μM puromycin (Sigma, St. Louis, MO) serve as […] cell viability control, respectively. The percent of cell viability was calculated for each tested compound concentration relative to the 0% and 100% controls and the CC50 value was determined by non-linear regression as a compound concentration reducing the cell viability by […].

Data set [4] in a line: in vitro. Conditions: human, s9, pH 7.4. The data set is classed as in vitro ADME. How it is done:
Duplicate aliquots of test compound or positive control substrate (GS-7340) were added to PMSF-free Intestinal S9 fractions diluted with 100 mM phosphate buffered saline, pH 7.4, to obtain a protein concentration of 1.0 mg/mL. The S9 metabolic reactions were initiated by the addition of the substrates to the S9 reaction mixture to a final concentration of 2 μM. At 0, 10, 20, 30, 60 and 120 min, 25 μL aliquots of the reaction mixture were transferred to plates containing 225 μl of IS/Q solution. After quenching, the plates were centrifuged at 3000×g for 30 minutes, and 150 μL aliquots of each supernatant were diluted with 150 μL water. Aliquots (10 μL) of the diluted supernatant were analyzed on a Thermo Q-Exactive mass spectrometer as described below. Quantification of test compounds and controls was performed by analyte/internal standard peak area ratio (PAR) values measured on a Thermo Q-Exactive mass spectrometer coupled to a Dionex UltiMate 3000 HPLC with a Leap Technologies HTC PAL autosampler. The column used was a Thermo Hypersil GOLD (1.9 μm particle size, 2.1×50 mm). Mobile phase A consisted of […] formic acid in water. Mobile phase B consisted of 0.1% (v/v) formic acid in acetonitrile. Elution of analytes was achieved by a series of linear gradients of acetonitrile in water containing 0.1% (v/v) formic acid. The mass spectrometer was calibrated on a weekly basis and mass tolerance of 5 ppm was used.

The format of data set [5] is in vitro ADME. Conditions: 2 μM. On the procedure:
Duplicate aliquots of plasma were warmed to 37° C. and the metabolic reactions initiated by the addition of test compound (6 μL of 0.1 mM DMSO stock) or plasma stability standard (GS-7340) to obtain a final substrate concentration of 2 μM. At 0.05, 0.5, 1, 2, 3 and 4 hr, 25 μL aliquots of the reaction mixture were transferred to plates containing 225 μl of IS/Q quenching solution. After quenching, the plates were centrifuged at 3000×g for 30 minutes, and 150 μL supernatant was diluted with 150 μL water. Aliquots (10 μL) of the diluted supernatant were analyzed on a Thermo Q-Exactive mass spectrometer as described below. Quantification of test compounds and controls was performed by analyte/internal standard peak area ratio (PAR) values measured on a Thermo Q-Exactive mass spectrometer coupled to a Dionex UltiMate 3000 HPLC with a Leap Technologies HTC PAL autosampler. The column used was a Thermo Hypersil GOLD (1.9 μm particle size, 2.1×50 mm). Mobile phase A consisted of […] formic acid in water. Mobile phase B consisted of 0.1% (v/v) formic acid in acetonitrile. Elution of analytes was achieved by a series of linear gradients of acetonitrile in water containing 0.1% (v/v) formic acid. The mass spectrometer was calibrated on a weekly basis and mass tolerance of 5 ppm was used.

The test system of data set [6] is Caco-2 cells (clone C2BBel). As to the kind of experiment: CACO-2 permeability. It is filed as in vitro ADME. Conditions: donor pH 6.5, receiver pH 7.4; for DM Caco2 A to B: forward (A to B); for DM Caco2 B to A: reverse (B to A). On the procedure:
Pre-plated Caco-2 cells (clone C2BBel) were obtained from Sigma-Aldrich, Inc. (Atlanta, GA). Cell monolayers were grown to confluence on collagen-coated, microporous, polycarbonate membranes in 24-well transwell plates for 21 days. The permeability assay buffer in donor wells was Hanks' balanced salt solution (HBSS) containing 10 mM HEPES and 15 mM glucose at a pH of 6.5 containing 200 μM BNPP. The receiver wells used HBSS buffer containing 10 mM HEPES and 15 mM glucose at a pH of 7.4 and supplemented with 1% BSA. After an initial equilibration with transport buffer, TEER values were read to test membrane integrity. The experiment was started by the addition of buffers containing test compounds, 200 μl and 1000 μl in the apical and basolateral chamber, respectively. At 0- and 2-hour post dose, 10 μL was sampled from donor compartment and was immediately diluted in 190 μL of 20% methanol. At 1 and 2 hours post dose, 100 μl of solution was taken from the receiver compartments and was immediately diluted in 100 μl of 20% methanol. Removed buffer was replaced with fresh buffer and a correction was applied to all calculations for the removed material. Each compound was tested in 2 separate replicate wells for each condition. All samples were then extracted with 400 μl 100% acetonitrile with internal standard to precipitate protein. Cells were dosed on the apical or basolateral side to determine forward (A to B) and reverse (B to A) permeability. To test for non-specific binding and compound instability, the total amount of drug was quantitated at the end of the experiment and compared to the material present in the original dosing solution as a percent recovery. Formation of the parent compound (GS-441524; Reference Compound A) was monitored in assay wells dosed with the prodrug. Samples were analyzed by LC-MS/MS.
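For CC50 in this document: uninfected MT-4 cells over 4-5 days by CellTiter-Glo.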

Consider `CCSC(=O)OC[C@H]1O[C@@](C#N)(c2ccc3c(N)ncnn23)[C@H](O)[C@@H]1O` [Compound 15, [(2R,3S,4R,5R)-5-(4-aminopyrrolo[2,1-f][1,2,4]triazin-7-yl)-5-cyano-3,4-dihydroxy-tetrahydrofuran-2-yl]methyl ethylsulfanylformate], for which the results for the EC50 in data set [1] and in data set [2] were 5650 nM and 19.7 µM, respectively. Further, in data set [3], the CC50 is greater than 50 µM. The half-life at 2 μM in data set [4] is 16.4 min. For the same compound, the “STA Human Plasma 37” value in data set [5] was 451.78. For the same compound, in data set [6], the “DM Caco2 A to B” value is given as 1.51. In addition, in data set [6], the “DM Caco2 B to A” value was determined as 7.08.
Take `N#C[C@@]1(c2ccc3c(N)ncnn23)O[C@H](COC(=O)N2C(=O)OC[C@@H]2Cc2ccccc2)[C@@H](O)[C@H]1O` [Compound 4, [(2R,3S,4R,5R)-5-(4-aminopyrrolo[2,1-f][1,2,4]triazin-7-yl)-5-cyano-3,4-dihydroxy-tetrahydrofuran-2-yl]methyl (4S)-4-benzyl-2-oxo-oxazolidine-3-carboxylate]: the EC50 is greater than 50000 nM in data set [1] and greater than 50 µM in data set [2]. Also, the half-maximal cytotoxic concentration (CC50) in data set [3] was greater than 50 µM. The half-life at 2 μM in data set [4] is no less than 789 min. Further, the “STA Human Plasma 37” value in data set [5] is 253.23. Further, the “DM Caco2 A to B” value in data set [6] turned out to be 0.12. Also, the “DM Caco2 B to A” value in data set [6] is recorded as 0.94.
On to `N#C[C@@]1(c2ccc3c(N)ncnn23)O[C@H](COC(=O)N2CCCO2)[C@@H](O)[C@H]1O` [Compound 12, [(2R,3S,4R,5R)-5-(4-aminopyrrolo[2,1-f][1,2,4]triazin-7-yl)-5-cyano-3,4-dihydroxy-tetrahydrofuran-2-yl]methyl isoxazolidine-2-carboxylate], for which the EC50 in data set [1] turned out to be 35300 nM. Moreover, the half-maximal effective concentration (EC50) in data set [2] was greater than 50 µM. In data set [3], this compound yielded a CC50 greater than 50 µM. Moreover, the half-life at 2 μM in data set [4] came to 85 min. Besides, in data set [5], the “STA Human Plasma 37” value is 938.47. Besides, in data set [6], the “DM Caco2 A to B” value turned out to be 0.08 and the “DM Caco2 B to A” value came to 0.36.
Turning to `CC(=O)O[C@H]1[C@@H](OC(C)=O)[C@](C#N)(c2ccc3c(N)ncnn23)O[C@@H]1COC(=O)NC(C)C` [Compound 18, [(2R,3R,4R,5R)-4-acetoxy-5-(4-aminopyrrolo[2,1-f][1,2,4]triazin-7-yl)-5-cyano-2-(isopropylcarbamoyloxymethyl)tetrahydrofuran-3-yl]acetate], the half-maximal effective concentration (EC50) in data set [1] is greater than 50000 nM. For the same compound, the 50% effective concentration (EC50) in data set [2] is greater than 50 µM. Besides, the CC50 in data set [3] was greater than 50 µM. In data set [4], this compound displayed a half-life at 2 μM of 0.581 min. In addition, the “STA Human Plasma 37” value in data set [5] is recorded as 16.014. Further, in data set [6], the “DM Caco2 A to B” value is reported as 0.8 and the “DM Caco2 B to A” value is 6.91.
For `N#C[C@@]1(c2ccc3c(N)ncnn23)O[C@H](COC(=O)N2CCS(=O)(=O)CC2)[C@@H](O)[C@H]1O` [Compound 11, [(2R,3S,4R,5R)-5-(4-aminopyrrolo[2,1-f][1,2,4]triazin-7-yl)-5-cyano-3,4-dihydroxy-tetrahydrofuran-2-yl]methyl 1,1-dioxo-1,4-thiazinane-4-carboxylate], the EC50 is greater than 50000 nM in data set [1] and greater than 50 µM in data set [2]. The compound further gave a CC50 in data set [3] greater than 50 µM. The compound also displayed a half-life at 2 μM in data set [4] of 779 min. For the same compound, the “STA Human Plasma 37” value in data set [5] is 1584. In data set [6], the “DM Caco2 A to B” value turned out to be 0.08. Besides, in data set [6], the “DM Caco2 B to A” value was 0.11.
For the compound `CC(C)[C@H](NC(=O)OC[C@H]1O[C@@](C#N)(c2ccc3c(N)ncnn23)[C@H](O)[C@@H]1O)C(=O)O` [Compound 6, ((((2R,3S,4R,5R)-5-(4-aminopyrrolo[2,1-f][1,2,4]triazin-7-yl)-5-cyano-3,4-dihydroxytetrahydrofuran-2-yl)methoxy)carbonyl)-L-valine], in data set [1], the EC50 was greater than 50000 nM. Further, the EC50 in data set [2] was greater than 50 µM. The cytotoxic concentration (CC50) in data set [3] was greater than 50 µM. The compound also showed a half-life at 2 μM in data set [4] of no less than 792 min. For the same compound, in data set [5], the “STA Human Plasma 37” value is given as 1584. In data set [6], the “DM Caco2 A to B” value is given as 0.05 and the “DM Caco2 B to A” value is reported as 0.07.
Regarding `CCCSC(=O)OC[C@H]1O[C@@](C#N)(c2ccc3c(N)ncnn23)[C@H](O)[C@@H]1O` [Compound 14, [(2R,3S,4R,5R)-5-(4-aminopyrrolo[2,1-f][1,2,4]triazin-7-yl)-5-cyano-3,4-dihydroxy-tetrahydrofuran-2-yl]methyl propylsulfanylformate], the figures for the EC50 in data set [1] and in data set [2] were 2620 nM and 11.7 µM, respectively. The compound also showed a CC50 in data set [3] greater than 50 µM. This compound showed a half-life at 2 μM in data set [4] of 5.12 min. Besides, in data set [5], the “STA Human Plasma 37” value was 495.99. The “DM Caco2 A to B” value in data set [6] is given as 2.06. In addition, the “DM Caco2 B to A” value in data set [6] came to 9.1.
Consider `CC(C)(C)SC(=O)OC[C@H]1O[C@@](C#N)(c2ccc3c(N)ncnn23)[C@H](O)[C@@H]1O` [Compound 17, [(2R,3S,4R,5R)-5-(4-aminopyrrolo[2,1-f][1,2,4]triazin-7-yl)-5-cyano-3,4-dihydroxy-tetrahydrofuran-2-yl]methyl tert-butylsulfanylformate], for which the EC50 in data set [1] was 8110 nM; in data set [2] it was no less than 50 µM. This compound registered a CC50 in data set [3] of 49.8 µM. The same compound gave a half-life at 2 μM in data set [4] of 44.5 min. Moreover, in data set [5], the “STA Human Plasma 37” value amounted to 1343.5. In data set [6], the “DM Caco2 A to B” value is given as 3.05. Further, the “DM Caco2 B to A” value in data set [6] is recorded as 15.63.
